From patent US10562857B2 (AFASCI, Inc., priority 2015, dated 2020)

Biological target: T1, Cav3.2 channel (Homo sapiens, UniProt O95180)
T1 construct: expressed in transfected cells; host or cells: HEK-293, tetracycline inducible expression system (Invitrogen)
Assay: Whole-cell patch clamp of T-type Cav3.2 channel expressed in HEK293 cells
Assay type: cell-based
Conditions: HEK293, read-out: % inhibition at 3 μM
Protocol: Cav3.1, Cav3.2 or Cav3.3 channels were expressed in human embryonic kidney (HEK)-293 cells using a tetracycline inducible expression system (Invitrogen). Cells were maintained in 25 cm^2 tissue culture flasks at 37° C., 5% CO2, and 100% relative humidity in D-MEM/F12 (Dulbecco's Modified Eagle Medium/Nutrient Mixture F-12; Gibco) supplemented with fetal bovine serum (FBS, 10% v/v), sodium pyruvate (0.5 mM, Gibco), penicillin-streptomycin (100 U/mL, 100 μg/mL) and Geneticin® Selective antibiotic (G418; 0.5 mg/mL). Cells were detached from the flask base using a non-enzymatic cell dissociation solution (Cellstripper, Corning), removed and re-seeded on to poly-D-lysine coated glass coverslips in 35 mm dishes. Cells in dishes were further supplemented with G418 at a final concentration of 1 mg/mL and after 24 hours, expression of Cav3.2 was induced with 1 μg/mL tetracycline. The medium for the HEK-293 cells was composed of D-MEM/F-12 (Dulbecco's Modified Eagle Medium/Nutrient Mixture F-12; Gibco, #11330-032) and 15 mM HEPES buffer, with L-glutamine and pyridoxine hydrochloride. It was supplemented with FBS (Fetal Bovine Serum), P/S (Penicillin/Streptomycin) (Gibco, #15140-122), and sodium pyruvate 100 mM (Gibco, #11360-070). At least 24 hours before the assay, expression of the alpha-2-delta-1 and beta2a subunits of the calcium channel were induced with 1 ug/mL tetracycline.
Whole-cell voltage clamp recordings were performed on rat or mouse DRG neurons within 2 days after acutely dissociation or cultured HEK293 cells expressing T-type channels (encoded by Cav3.1, Cav3.2 or Cav3.3 channels). All experiments were performed at room temperature (around 21° C.). Whole-cell currents were recorded using a MultiClamp 700B amplifier and analyzed offline with pCLAMP10.4 software (Molecular Devices, LLC, Sunnyvale Calif., USA). To record calcium currents in DRG and HEK293 cells, the external solution was composed (in mM) of 115 choline-Cl, 30 TEA-Cl, 2 CaCl2, 10 glucose and 10 HEPES (pH 7.3-7.4 adjusted with TEA-OH; osmolality verified as 295 mOsm/kg). The internal solution was composed (in mM) of 125 CsCl, 10 HEPES (acid), 10 EGTA (ethylene glycol tetraacetic acid), 1 CaCl2, 1 MgCl2, 4 MgATP and 0.3 MgGTP (pH 7.3-7.4 adjusted with CsOH; osmolality verified as 295 mOsm/kg). Since the sodium ions were absent in the external solution, tetrodoctoxin was not needed. Calcium currents were recorded at a holding potential of −100 mV and then depolarized to −30 mV for 100 ms to activate either Cav3.1, Cav3.2, or Cav3.3 expressed in HEK cells. An interpulse interval of 10 seconds allowed the channel recovery from inactivation, and achieved stable current recordings. To record sodium (Na^+) currents in DRG neurons, the external solution used the modified Krebs solution specified above. The internal solution was composed (in mM) of 120 CsF, 10 HEPES, 11 EGTA, 1 CaCl2, 1 MgCl2, 10 TEA-Cl, 4 MgATP and 0.3 MgGTP (pH 7.3-7.4 adjusted with CsOH). […] To record potassium currents in DRG neurons, the external solution used the modified Kreb's solution specified above. The internal solution was composed (in mM) of 65 KCl, 80 KF, 5 KOH, 10 EGTA, 2 MgATP (pH 7.3-7.4 adjusted with KOH). Recording electrodes were fabricated using a P-87 puller (Sutter Instrument Co., Novato, Calif., USA). The tip of resistance was 3-4 MQ in bath and the series resistance was less than 10 MΩ after whole cell configuration. All reagents were purchased from Sigma unless specified otherwise. Test compounds were usually applied via a rapid solution exchange system with 8 fine polyplastic tubings (100 μm, OD) glued in a holder in parallel and located closely to the recorded cells. […]

T1 sequence (O95180 whole entry): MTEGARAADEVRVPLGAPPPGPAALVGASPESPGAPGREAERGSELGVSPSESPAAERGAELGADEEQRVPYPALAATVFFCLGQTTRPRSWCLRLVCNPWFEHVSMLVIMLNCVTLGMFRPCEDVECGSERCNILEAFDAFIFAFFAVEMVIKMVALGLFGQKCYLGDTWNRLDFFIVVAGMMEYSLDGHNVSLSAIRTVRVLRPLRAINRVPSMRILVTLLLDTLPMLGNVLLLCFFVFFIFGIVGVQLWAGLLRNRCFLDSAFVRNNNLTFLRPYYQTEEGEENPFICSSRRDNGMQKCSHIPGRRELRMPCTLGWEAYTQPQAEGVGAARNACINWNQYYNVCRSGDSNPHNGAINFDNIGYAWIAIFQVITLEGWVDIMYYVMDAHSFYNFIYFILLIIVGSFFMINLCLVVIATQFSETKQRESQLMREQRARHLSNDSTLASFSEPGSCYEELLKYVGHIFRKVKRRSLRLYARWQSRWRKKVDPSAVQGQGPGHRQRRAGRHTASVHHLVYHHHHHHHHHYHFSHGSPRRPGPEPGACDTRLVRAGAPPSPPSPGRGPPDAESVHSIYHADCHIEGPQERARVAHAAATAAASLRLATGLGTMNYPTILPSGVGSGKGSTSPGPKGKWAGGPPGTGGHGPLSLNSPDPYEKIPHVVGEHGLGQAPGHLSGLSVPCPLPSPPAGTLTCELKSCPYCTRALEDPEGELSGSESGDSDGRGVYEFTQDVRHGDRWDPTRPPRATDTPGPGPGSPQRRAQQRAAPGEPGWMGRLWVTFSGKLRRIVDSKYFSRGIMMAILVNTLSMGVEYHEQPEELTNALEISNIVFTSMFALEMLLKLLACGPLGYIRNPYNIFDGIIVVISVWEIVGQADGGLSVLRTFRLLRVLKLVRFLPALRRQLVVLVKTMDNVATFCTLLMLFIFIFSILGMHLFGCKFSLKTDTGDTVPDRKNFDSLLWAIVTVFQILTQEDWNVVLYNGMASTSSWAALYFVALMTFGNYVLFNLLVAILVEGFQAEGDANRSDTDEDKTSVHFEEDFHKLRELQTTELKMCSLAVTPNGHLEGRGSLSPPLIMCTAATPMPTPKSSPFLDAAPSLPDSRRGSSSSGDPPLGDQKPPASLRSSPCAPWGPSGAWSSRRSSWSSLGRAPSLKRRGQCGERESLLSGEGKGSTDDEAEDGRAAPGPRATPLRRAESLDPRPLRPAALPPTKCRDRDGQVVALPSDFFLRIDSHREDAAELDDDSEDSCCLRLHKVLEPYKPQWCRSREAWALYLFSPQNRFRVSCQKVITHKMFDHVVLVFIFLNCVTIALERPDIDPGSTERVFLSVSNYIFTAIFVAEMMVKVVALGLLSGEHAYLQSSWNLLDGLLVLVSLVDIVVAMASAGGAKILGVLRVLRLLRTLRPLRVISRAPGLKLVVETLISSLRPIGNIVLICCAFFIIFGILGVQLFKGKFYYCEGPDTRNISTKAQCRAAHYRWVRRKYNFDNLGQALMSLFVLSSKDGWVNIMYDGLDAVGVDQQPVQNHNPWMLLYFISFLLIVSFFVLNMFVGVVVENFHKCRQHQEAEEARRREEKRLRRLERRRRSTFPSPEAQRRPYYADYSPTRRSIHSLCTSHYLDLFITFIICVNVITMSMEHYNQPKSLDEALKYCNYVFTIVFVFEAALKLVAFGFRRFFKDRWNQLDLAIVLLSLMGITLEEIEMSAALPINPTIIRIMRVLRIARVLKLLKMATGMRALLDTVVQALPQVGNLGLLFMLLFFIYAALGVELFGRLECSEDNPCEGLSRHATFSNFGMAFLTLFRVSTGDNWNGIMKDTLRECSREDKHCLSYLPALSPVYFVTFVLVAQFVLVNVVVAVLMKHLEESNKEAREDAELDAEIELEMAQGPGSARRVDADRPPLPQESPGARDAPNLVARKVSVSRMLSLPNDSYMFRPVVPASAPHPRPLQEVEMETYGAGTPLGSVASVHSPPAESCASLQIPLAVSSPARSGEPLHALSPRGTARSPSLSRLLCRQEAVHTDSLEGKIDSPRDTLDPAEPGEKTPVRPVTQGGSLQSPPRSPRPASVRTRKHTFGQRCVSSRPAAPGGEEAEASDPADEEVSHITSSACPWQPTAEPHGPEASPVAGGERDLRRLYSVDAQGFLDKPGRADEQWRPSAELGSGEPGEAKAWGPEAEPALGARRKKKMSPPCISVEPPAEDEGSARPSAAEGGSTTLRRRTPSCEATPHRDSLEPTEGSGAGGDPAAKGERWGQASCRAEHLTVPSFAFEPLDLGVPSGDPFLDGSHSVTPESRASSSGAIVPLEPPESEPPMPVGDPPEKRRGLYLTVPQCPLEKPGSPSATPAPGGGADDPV

Molecule `CC(C)CN1CCC2(CC1)CC2NC(=O)c1ccccc1` (stereo not drawn) [Example 1, N-(6-Isobutyl-6-azaspiro[2.5]octan-1-yl)benzamide] has an inhibition at 3 µM of 15.3%.

Same assay, conditions: HEK293; Table 1 primary screening; 3 μM as indicated in cell; read-out: % inhibition at 3 μM

Point of comparison: `CC(C)(C)CCN1CCC2(CC1)CC2NC(=O)c1ccccc1` (stereo not drawn) [Example 2, N-(6-(3,3-Dimethylbutyl)-6-azaspiro[2.5]octan-1-yl)benzamide], inhibition at 3 µM 55.3%. Against it:
- O=C(NC1CC12CCN(CCc1ccccc1)CC2)c1ccccc1 (stereo not drawn) [Example 3, N-(6-Phenethyl-6-azaspiro[2.5]octan-1-yl)benzamide] — lower, 47.7%
- CC(C)(C)NC(=O)CN1CCC2(CC1)CC2NC(=O)c1ccccc1 (stereo not drawn) [Example 4, N-(6-(2-(tert-Butylamino)-2-oxoethyl)-6-azaspiro[2.5]octan-1-yl)benzamide] — lower, 24.7%
- O=C(NC1CC12CCN(Cc1ccccc1)CC2)c1ccccc1 (stereo not drawn) [Example 5, N-(6-Benzyl-6-azaspiro[2.5]octan-1-yl)benzamide] — lower, 44%
- CC(C)CN1CCC2(CC1)CC2NC(=O)c1ccc(Cl)c(Cl)c1 (stereo not drawn) [Example 6, 3,4-Dichloro-N-(6-isobutyl-6-azaspiro[2.5]octan-1-yl)benzamide] — lower, 29.1%

Same assay, conditions: Table 1; tested at at least 4 concentrations; read-out: IC50

Point of comparison: `O=C(NC1CC12CCN(CC(O)c1ccc(F)cc1)CC2)c1cc(F)cc(Cl)c1` (single isomer, unassigned) [Example 139, 3-Chloro-5-fluoro-N-((1R)-6-(2-(4-fluorophenyl)-2-hydroxyethyl)-6-azaspiro[2.5]octan-1-yl)benzamide or 3-Chloro-5-fluoro-N-((1S)-6-(2-(4-fluorophenyl)-2-hydroxyethyl)-6-azaspiro[2.5]octan-1-yl)benzamide], IC50 90 nM. Against it:
- CC(C)(C)NC(=O)CN1CCC2(CC1)C[C@@H]2NC(=O)c1cc(Cl)cc(Cl)c1 (single isomer, unassigned) [Example 56, (S)—N-(6-(2-(tert-Butylamino)-2-oxoethyl)-6-azaspiro[2.5]octan-1-yl)-3,5-dichlorobenzamide or (R)—N-(6-(2-(tert-Butylamino)-2-oxoethyl)-6-azaspiro[2.5]octan-1-yl)-3,5-dichlorobenzamide] — 2.1-fold higher, 190 nM
- CC(C)(C)NC(=O)CN1CCC2(CC1)C[C@@H]2NC(=O)[C@]12C[C@@]3(F)C[C@](F)(C[C@](F)(C3)C1)C2 (single isomer, unassigned) [Example 131, (3S,5S,7S)—N—((R)-6-(2-(tert-Butylamino)-2-oxoethyl)-6-azaspiro[2.5]octan-1-yl)-3,5,7-trifluoroadamantane-1-carboxamide or (3S,5S,7S)—N—((S)-6-(2-(tert-Butylamino)-2-oxoethyl)-6-azaspiro[2.5]octan-1-yl)-3,5,7-trifluoroadamantane-1-carboxamide] — 6.9-fold higher, 620 nM
- CC(C)(C)NC(=O)CN1CCC2(CC1)C[C@H]2C(=O)Nc1cc(F)cc(C(F)(F)F)c1 (single isomer, unassigned) [Example 133, (R)-6-(2-(tert-Butylamino)-2-oxoethyl)-N-(3-fluoro-5-(trifluoromethyl)phenyl)-6-azaspiro[2.5]octane-1-carboxamide or (S)-6-(2-(tert-Butylamino)-2-oxoethyl)-N-(3-fluoro-5-(trifluoromethyl)phenyl)-6-azaspiro[2.5]octane-1-carboxamide] — 2.2-fold higher, 200 nM
- CC(C)(C)C(=O)CN1CCC2(CC1)C[C@H]2NC(=O)c1cc(F)cc(Cl)c1 (single isomer, unassigned) [Example 134, (R)-3-Chloro-N-(6-(3,3-dimethyl-2-oxobutyl)-6-azaspiro[2.5]octan-1-yl)-5-fluorobenzamide or (S)-3-Chloro-N-(6-(3,3-dimethyl-2-oxobutyl)-6-azaspiro[2.5]octan-1-yl)-5-fluorobenzamide] — within 1.5-fold, 120 nM
- CC(C)(C)C(O)CN1CCC2(CC1)CC2NC(=O)c1cc(F)cc(Cl)c1 (single isomer, unassigned) [Example 135, 3-Chloro-5-fluoro-N-((1R)-6-(2-hydroxy-3,3-dimethylbutyl)-6-azaspiro[2.5]octan-1-yl)benzamide or 3-Chloro-5-fluoro-N-((1S)-6-(2-hydroxy-3,3-dimethylbutyl)-6-azaspiro [2.5]octan-1-yl) benzamide] — 2.3-fold higher, 210 nM
- O=C(CN1CCC2(CC1)CC2NC(=O)c1cc(F)cc(Cl)c1)c1ccc(C(F)(F)F)cc1 (single isomer, unassigned) [Example 136, (R)-3-Chloro-5-fluoro-N-(6-(2-oxo-2-(4-(trifluoromethyl)phenyl)ethyl)-6-azaspiro[2.5]octan-1-yl)benzamide or (S)-3-Chloro-5-fluoro-N-(6-(2-oxo-2-(4-(trifluoromethyl)phenyl)ethyl)-6-azaspiro[2.5]octan-1-yl) benzamide] — 2.9-fold higher, 260 nM
- O=C(N[C@@H]1CC12CCN(CC(O)c1ccc(C(F)(F)F)cc1)CC2)c1cc(F)cc(Cl)c1 (single isomer, unassigned) [Example 137, 3-Chloro-5-fluoro-N-((1R)-6-(2-hydroxy-2-(4-(trifluoromethyl)phenyl)ethyl)-6-azaspiro[2.5]octan-1-yl)benzamide or 3-Chloro-5-fluoro-N-((1S)-6-(2-hydroxy-2-(4-(trifluoromethyl)phenyl)ethyl)-6-azaspiro[2.5]octan-1-yl)benzamide] — within 1.5-fold, 70 nM
- O=C(CN1CCC2(CC1)CC2NC(=O)c1cc(F)cc(Cl)c1)c1ccc(F)cc1 (single isomer, unassigned) [Example 138, (R)-3-Chloro-5-fluoro-N-(6-(2-(4-fluorophenyl)-2-oxoethyl)-6-azaspiro[2.5]octan-1-yl)benzamide or (S)-3-Chloro-5-fluoro-N-(6-(2-(4-fluorophenyl)-2-oxoethyl)-6-azaspiro[2.5]octan-1-yl)benzamide] — 2-fold higher, 180 nM
- CC(C)NC(=O)CN1CCC2(CC1)CC2NC(=O)c1cc(F)cc(Cl)c1 (single isomer, unassigned) [Example 140, (R)-3-Chloro-5-fluoro-N-(6-(2-(isopropylamino)-2-oxoethyl)-6-azaspiro[2.5]octan-1-yl)benzamide or (S)-3-Chloro-5-fluoro-N-(6-(2-(isopropylamino)-2-oxoethyl)-6-azaspiro[2.5]octan-1-yl)benzamide] — 5.8-fold higher, 520 nM
- CC(C)(C)NC(=O)CN1CCC2(CCC2NC(=O)c2cc(Cl)cc(Cl)c2)CC1 (stereo in doubt) [Example 114, (R)—N-(7-(2-(tert-Butylamino)-2-oxoethyl)-7-azaspiro[3.5]nonan-1-yl)-3,5-dichlorobenzamide] — 2.6-fold higher, 230 nM
- CC(C)(C)CCN1CCC2(CC1)CC2NC(=O)c1ccc(Cl)c(Cl)c1 (stereo not drawn) [Example 7, 3,4-Dichloro-N-(6-(3,3-dimethylbutyl)-6-azaspiro[2.5]octan-1-yl)benzamide] — within 1.5-fold, 120 nM
- O=C(NC1CC12CCN(CCc1ccccc1)CC2)c1ccc(Cl)c(Cl)c1 (stereo not drawn) [Example 8, 3,4-Dichloro-N-(6-phenethyl-6-azaspiro[2.5]octan-1-yl)benzamide] — within 1.5-fold, 120 nM
- CC(C)(C)NC(=O)CN1CCC2(CC1)CC2NC(=O)c1ccc(Cl)c(Cl)c1 (stereo not drawn) [Example 9, N-(6-(2-(tert-Butylamino)-2-oxoethyl)-6-azaspiro[2.5]octan-1-yl)-3,4-dichlorobenzamide] — within 1.5-fold, 80 nM
- O=C(NC1CC12CCN(Cc1ccccc1)CC2)c1ccc(Cl)c(Cl)c1 (stereo not drawn) [Example 10, N-(6-Benzyl-6-azaspiro[2.5]octan-1-yl)-3,4-dichlorobenzamide] — 8.9-fold higher, 800 nM
